Reference: paper PMC3343456 (Angewandte Chemie (International ed. in English), 2011)

Molecular target: GilOI (Streptomyces griseoflavus, UniProt Q7X2G6)
Test: cofactor content of the purified enzyme
Format: binding

In the case of `Cc1cc2nc3c(=O)[nH]c(=O)nc-3n(C[C@H](O)[C@H](O)[C@H](O)COP(=O)(O)OP(=O)(O)OC[C@H]3O[C@@H](n4cnc5c(N)ncnc54)[C@H](O)[C@@H]3O)c2cc1C` [flavin adenine dinucleotide], the “cofactor content of the purified enzyme (Figure S3)” value is reported as “GilOI and GilOIV are oxygenases that contain flavin adenine dinucleotide (FAD, Figure S3”.
